According to patent US20110098301A1, “Pyrimidine Derivatives for Treatment of Hyperproliferative Disorders” (BAYER HEALTHCARE LLC, priority 2005, published 2011):

System: HCT116 cells
Assay: Cytotoxic activity: tumor cell proliferation assay (Alamar Blue)
Format: cell-based
Conditions: Homo sapiens, HCT-116, 72 h with compound, Alamar Blue readout
Method: The following section describes an assay that can be used to characterize compounds of the invention, e.g., to test for the cytotoxic activity of compounds on cells.
Human tumor cells, e.g., HCT116 cells, are seeded in a 96-well plate at 3.0×10^3 cells/well and grown in 100 μl of RPMI complete media (Invitrogen Corporation, Grand Island, N.Y., USA) containing 10% fetal bovine serum (Hyclone, Logan, Utah, USA) and 10 mM HEPES and at 37° C. for 16 h in an incubator with 5% CO2. To each well, 50 μl of additional growth media containing 20 μM to 60 nM concentrations of compound with 0.2% DMSO is added. Cells are grown for another 72 h at 37° C. 20 μl of Alamar Blue (Trek Diagnostic Systems, Inc., Cleveland, Ohio, USA) reagent is added to each well and incubated for 4 h at 37° C. Plates are read in a SpectraMax Gemini (Molecular Devices, CA, USA) with 544 nm excitation and 590 nm emission wavelength. IC50 values are determined by linear regression analysis of log drug concentration versus percent inhibition.

Compared with `Cc1cccc(C)c1-c1cc(Nc2ccc(Oc3ccnc(C(F)(F)F)c3)cc2)nc(N)n1` [Example 335, 6-(2,6-dimethylphenyl)-N^4-(4-{[2-(trifluoromethyl)pyridin-4-yl]oxy}phenyl)pyrimidine-2,4-diamine], `Nc1nc(Nc2ccc(Oc3ccnc(C(F)(F)F)c3)cc2)cc(-c2cncnc2)n1` [Example 337, N^6-(4-{[2-(trifluoromethyl)pyridin-4-yl]oxy}phenyl)-4,5′-bipyrimidine-2,6-diamine] is 2.2-fold higher in IC50: 62 nM for the first, 135 nM for the second.

First: Cc1cc(Oc2ccc(Nc3cc(-c4ccc(N)nc4)nc(N)n3)cc2)ccn1 [Example 336, 6-(6-aminopyridin-3-yl)-N^4-{4-[(2-methylpyridin-4-yl)oxy]phenyl}pyrimidine-2,4-diamine]
Second: Nc1ccc(-c2cc(Nc3ccc(Oc4ccnc(C(F)(F)F)n4)cc3)nc(N)n2)cn1 [Example 339, 6-(6-aminopyridin-3-yl)-N^4-(4-{[2-(trifluoromethyl)pyrimidin-4-yl]oxy}phenyl)pyrimidine-2,4-diamine]
The IC50 of the first is 2-fold higher: 6 nM for the first, 3 nM for the second. The second is the more potent here.

For `Nc1nc(Nc2ccc(Oc3ccnc(C(F)(F)F)n3)cc2)cc(-c2ccccc2)n1` [Example 338, 6-phenyl-N^4-(4-{[2-(trifluoromethyl)pyrimidin-4-yl]oxy}phenyl)pyrimidine-2,4-diamine], the IC50 was 17 nM.
